Results taken from US11857535B2, “Methods of treating mutant lymphomas” (Kymera Therapeutics, Inc., priority 2020, dated 2024).

Experiments:
[1] = test system: OCI-Ly10; assay: CTG cell viability assay - OCI-Ly10; assay type: cell-based; settings: Homo sapiens, 96 h; OCI-Ly10, 4 days
Procedure: Compound-mediated viability effect on OCI-Ly10 or SUDHL-2 was quantitatively determined using the CellTiter-Glo® Luminescent Cell Viability Assay kit from Promega (Catalog number G7570) following manufacturer's recommended procedures. Briefly, OCI-Ly10 or SUDHL-2 cells were seeded into 384 well plates (Grenier Bio-One, Catalog number 781080) with a density of 10,000 cells per well. Compounds were then added to the assay plate with final top concentration of 10 μM and 1:3 dilution series with total of 9 doses. The final DMSO concentration was normalized to 0.2%. The assay plates were incubated at 37° C. for 4 days under 5% CO2. Then the assay plate was equilibrated at room temperature for 10 minutes. To determine cell viability, 30 μL CellTiter Glo reagent was added to each well and the assay plate was centrifuged at 1000 rpm for 30 second, incubated at room temperature for 10 min, and analyzed by detecting the luminescence using a multimode plate reader (EnVision 2105, PerkinElmer). The data was then analyzed by software Prism 7.0 from GraphPad and the dose response curves were fit using a three-parameter logistic equation to calculate IC50.

[2] = test system: OCI-LY10 tumor xenographs; assay: OCI-Ly10 xenograph tumor study (tumor volume, TGI, responses); assay type: in vivo, mouse; parameters: key to TGI (D14): TGI % = (1−T/C)×100; settings: for TGI (28D): TGI=(1-T/C)100
Procedure: Cell Culture: The OCI-LY10 tumor cells were maintained as suspension in RPMI1640 medium supplemented with 10% fetal bovine serum, 100 U/mL penicillin and 100 μg/mL streptomycin at 37° C. in an atmosphere of 5% CO2 in air. The tumor cells were routinely subcultured twice weekly by trypsin-EDTA treatment. The cells growing in an exponential growth phase were harvested and counted for tumor inoculation.
Animals: C.B. 17 SCID, female, 6-8 weeks, weighing approximately 16-18 g were used. Animals were housed and maintained according to IACUC protocols.
Tumor Inoculation: Each mouse was inoculated subcutaneously at the right flank with OCI-LY10 tumor cells (10×10^6) in 0.2 mL of PBS with matrigel for tumor development. The treatments were started when the tumor sizes reached approximately 150-450 mm^3 for the studies.
Assignment to Groups: Before commencement of treatment, all animals were weighed and the tumor volumes were measured. Since the tumor volume can affect the compound PK/PD, mice are assigned into groups using an Excel-based randomization procedure performing stratified randomization based upon their tumor volumes.
Observation: After tumor inoculation, the animals were checked daily for morbidity and mortality. During routine monitoring, the animals were checked for any effects of tumor growth and treatments on behavior such as mobility, food and water consumption, body weight gain/loss, eye/hair matting and any other abnormalities. Mortality and observed clinical signs were recorded for individual animals in detail.
Data Collection: Tumor volumes were measured in two dimensions using a caliper, and the volumes were expressed in mm^3 using the formula: ″V=(L×W×W)/2, where V is tumor volume, L is tumor length (the longest tumor dimension) and W is tumor width (the longest tumor dimension perpendicular to L).
TGI (tumor growth inhibition)=(1−T/C)100; PR (partial response)≥50% tumor shrinkage; CR (complete response)>95% tumor shrinkage from starting volume

[3] = 10 mg/kg PO, D1-7 (line noted BENCHMARK)
[4] = 10 mg/kg PO, D1-7 (second line of this schedule)

CC(C)(O)c1cc2nc([C@H]3CC[C@H](CN4CC5(CC(CCNc6cccc7c6C(=O)N(C6CCC(=O)NC6=O)C7=O)C5)C4)CC3)sc2cc1NC(=O)c1cccc(C(F)(F)F)n1 (stereo partly drawn) [Compound A, N-(2-((1r,4r)-4-((6-(2-((2-(2,6-dioxopiperidin-3-yl)-1,3-dioxoisoindolin-4-yl)amino)ethyl)-2-azaspiro[3.3]heptan-2-yl)methyl)cyclohexyl)-5-(2-hydroxypropan-2-yl)benzo[d]thiazol-6-yl)-6-(trifluoromethyl)picolinamide]
IC50 [1]: < 50 nM | PR (partial response), animals ([2]; 3 mg/kg IV, D1, 2, 8, 9): 3 | TGI (D14) ([2]; 3 mg/kg IV, D1, 2, 8, 9): 89 | PR (partial response), animals ([2]; 3 mg/kg IV, D1, 4, 8, 11): 3 | TGI (D14) ([2]; 3 mg/kg IV, D1, 4, 8, 11): 89 | PD (progressive disease), animals ([2]; 5 mg/kg PO, D1-4, 15-18): 1 | TGI (D14) ([2]; 5 mg/kg PO, D1-4, 15-18): 62 | Notes ([2]; 5 mg/kg PO, D1-4, 15-18, note continues 'D14'): All tumors growing after | PR (partial response), animals ([2]; 5 mg/kg PO, D1-7): 2 | TGI (D14) ([2]; 5 mg/kg PO, D1-7): 75 | Notes ([2]; 5 mg/kg PO, D1-7, note continues 'D14'): All tumors growing after | PR (partial response), animals ([2]; 6 mg/kg IV, D1, 2, 8, 9): 5 | TGI (D14) ([2]; 6 mg/kg IV, D1, 2, 8, 9): 94 | PR (partial response), animals ([2]; 10 mg/kg PO, D1, 2, 8, 9): 2 | TGI (D14) ([2]; 10 mg/kg PO, D1, 2, 8, 9): 88 | Notes ([2]; 10 mg/kg PO, D1, 2, 8, 9, note continues 'and continue trending down'): All show tumor regression | PR (partial response), animals ([2]; 10 mg/kg PO, D1, 4, 8, 11): 5 | TGI (D14) ([2]; 10 mg/kg PO, D1, 4, 8, 11): 85 | Notes: PR on D18, animals ([2]; 10 mg/kg PO, D1, 4, 8, 11, D18): 6 | Notes: near PR on D18, animals ([2]; 10 mg/kg PO, D1, 4, 8, 11, D18): 1 | PD (progressive disease), animals ([2]; 10 mg/kg PO, D1-3): 1 | PR (partial response), animals ([2]; 10 mg/kg PO, D1-3): 5 | TGI (D14) ([2]; 10 mg/kg PO, D1-3): 82 | Notes ([2]; 10 mg/kg PO, D1-3, note continues 'regression'): All SD show some | PR (partial response), animals ([2]; 10 mg/kg PO, D1-4, 15-18): 7 | TGI (D14) ([2]; 10 mg/kg PO, D1-4, 15-18): 87 | Notes ([2]; 10 mg/kg PO, D1-4, 15-18, note continues 'significantly from D10'): All tumors shrank | CR (complete response), animals [2, 3]: 1 | PR (partial response), animals [2, 3]: 6 | TGI (D14) [2, 3]: 96 | CR (complete response), animals [2, 4]: 1 | PR (partial response), animals [2, 4]: 6 | TGI (D14) [2, 4]: 97 | PR (partial response), animals ([2]; 12 mg/kg IV, D1, 8): 5 | TGI (D14) ([2]; 12 mg/kg IV, D1, 8): 94 | Notes ([2]; 12 mg/kg IV, D1, 8,, note continues 'and continue trending down'): All show tumor regression | PR (partial response), animals ([2]; 15 mg/kg PO, D1, 2, 8, 9): 7 | TGI (D14) ([2]; 15 mg/kg PO, D1, 2, 8, 9): 91 | Notes ([2]; 15 mg/kg PO, D1, 2, 8, 9, note continues 'significantly from D10'): Very Active: Tumors shrank | Notes: tumors growing slightly ([2]; 15 mg/kg PO, D1, 8, 15): 2/5 are growing slightly | Notes: tumors with some regression ([2]; 15 mg/kg PO, D1, 8, 15): 3/5 show some regression; | TGI (D14) ([2]; 15 mg/kg PO, D1, 8, 15): 83 | CR (complete response), animals ([2]; 20 mg/kg PO, D1-3): 1 | PR (partial response), animals ([2]; 20 mg/kg PO, D1-3): 6 | TGI (D14) ([2]; 20 mg/kg PO, D1-3): 96 | CR (complete response), animals ([2]; 30 mg/kg PO, D1,2): 4 | PR (partial response), animals ([2]; 30 mg/kg PO, D1,2): 3 | TGI (D14) ([2]; 30 mg/kg PO, D1,2): 99 | Notes: CR by D18, animals ([2]; 30 mg/kg PO, D1,2, D18): 6 CR by D18 | CR (complete response), animals ([2]; 30 mg/kg PO, D1, 4, 8): 3 | PR (partial response), animals ([2]; 30 mg/kg PO, D1, 4, 8): 4 | TGI (D14) ([2]; 30 mg/kg PO, D1, 4, 8): 97 | Notes: CR at D18, animals ([2]; 30 mg/kg PO, D1, 4, 8, D18): 5 | Notes: PR at D18, animals ([2]; 30 mg/kg PO, D1, 4, 8, D18): 2 | Notes ([2]; 30 mg/kg PO, D1, 4, 8, at D18): Tumors continue to regress | CR (complete response), animals ([2]; 30 mg/kg PO, D1, 8, 15): 2 | PR (partial response), animals ([2]; 30 mg/kg PO, D1, 8, 15): 5 | TGI (D14) ([2]; 30 mg/kg PO, D1, 8, 15): 96 | CR (complete response), animals ([2]; 30 mg/kg PO, D1-3): 4 | PR (partial response), animals ([2]; 30 mg/kg PO, D1-3): 3 | TGI (D14) ([2]; 30 mg/kg PO, D1-3): 99 | Notes: CR by D18, animals ([2]; 30 mg/kg PO, D1-3, D18): 7 CR by D18 | CR (complete response), animals ([2]; 45 mg/kg PO, D1,2): 4 | PR (partial response), animals ([2]; 45 mg/kg PO, D1,2): 3 | TGI (D14) ([2]; 45 mg/kg PO, D1,2): 99 | Notes: CR by D18, animals ([2]; 45 mg/kg PO, D1,2, D18): 7 CR by D18 | CR (complete response), animals ([2]; 60 mg/kg PO, D1): 2 | PR (partial response), animals ([2]; 60 mg/kg PO, D1): 5 | TGI (D14) ([2]; 60 mg/kg PO, D1): 97 | tumor response in OCI-Ly10 xenographs ([2]; 3 mpk x 21 d): regressions | PR (partial response), animals ([2]; 3 mpk, PR ≥50% tumor shrinkage): 4 | TGI (28D) ([2]; 3 mpk): 91% | CR (complete response), animals ([2]; 10 mpk, CR >95% tumor shrinkage from starting volume): 5CR | TGI (28D) ([2]; 10 mpk): 99.9% | CR (complete response), animals ([2]; 30 mpk, CR >95% tumor shrinkage from starting volume): 5CR | TGI (28D) ([2]; 30 mpk): 99.9% | regressions compared with Compound B ([2]; OCI-Ly10 tumor xenographs, FIG. 2): more potent regressions than Compound B | IV versus PO activity ([2]; QW and BIW schedules, FIG. 3): equally active | Efficacy, IV versus PO ([2]; comparison of both routes of administration): Efficacy is equivalent between both ROA | tumor response on intermittent schedule ([2]; dosed BIW every 3 weeks, FIG. 3): induces regression | tumor response in OCI-Ly10 xenographs ([2]; higher doses (>10 mpk)): more rapid and complete regressions | Activity (class of schedule) ([2]; mg/kg: 5 PO D1-4,15-18, 5 PO D1-7, 15 PO D1,8,15): Insufficient | Activity (class of schedule) ([2]; mg/kg: 10 PO D1,2,8,9, 3 IV D1,2,8,9, 3 IV D1,4,8,11, 10 PO D1-3, 10 PO D1,4,8,11, 10 PO D1-4,15-18, 15 PO D1,2,8,9, 6 IV D1,2,8,9, 12 IV D1,8): Minimal | Activity (class of schedule) ([2]; mg/kg: 30 PO D1,8,15, 10 PO D1-7, 20 PO D1-3, 60 PO D1, 30 PO D1,4,8, 30 PO D1,2, 30 PO D1-3, 45 PO D1,2): Optimal
